Test results as given in patent publication US20230146455A1, “TREATMENT OF INFLAMMATORY DISEASES WITH PEPTIDES AND PHARMACEUTICAL COMPOSITIONS” (Yuyu Pharma, Inc., priority 2020, published 2023).
Several values for one entry are separate records, joined by “and”; a condition that tells them apart may be missing. Identical values can stand only once. Where a SMILES comes first, the peptide text is derived from it. [ ]: non-standard residue; d: D form. Hyp = O=C(O)[C@@H]1C[C@@H](O)CN1

System: IL-2
Test: Example 8 main study Luminex, LPS hPBMCs: IL-2
Assay type: cell-based, human
Conditions: for IL-2 Concentration, individual wells / IL-2 MFI, individual wells / IL-2 MFI, Mean / IL-2 Concentration, Mean: 24 h; for IL-2 MFI, Mean: LPS alone Mean 80.5; for IL-2 Concentration, Mean: LPS alone Mean 3988.7
Description: Human PBMCs were pretreated with YY-101, YDE-011, YDE-043 or reference compound; Xiidra® at various concentration (ranging from […] to 500 nM) for 2 h before stimulation. An equal volume of 0.5% DMSO was used as a vehicle control. Then, the cells were treated with LPS at 5 ug/ml, which was selected based on the pilot study. The supernatants from treated cells were harvested at 24 h and placed in a 96 well for Luminex cytokine & chemokine profiling using a Luminex 200 multiplex assay (Luminex; R&D system, USA).
The main study arm with triplicate wells per group in a 24-well plate: • 1. Blank • 2. PBMC: 0.5% DMSO • 3. PBMC+LPS (5 ug/ml) • 4. PBMC+YY-101 500 nM • 5. PBMC+YY-101 50 nM • 6. PBMC+YY-101 5 nM • 7. PBMC+YY-101 0.5 nM • 8. PBMC+LPS (5 ug/ml)+Xiidra® 500 nM • 9. PBMC+LPS (5 ug/ml)+Xiidra® 50 nM • 10. PBMC+LPS (5 ug/ml)+Xiidra® 5 nM • 11. PBMC+LPS (5 ug/ml)+Xiidra® 0.5 nM • 12. PBMC+LPS (5 ug/ml)+Xiidra® 0.05 nM • 13. PBMC+LPS (5 ug/ml)+Xiidra® 0.005 nM • 14. PBMC+LPS (5 ug/ml)+YY-101 500 nM • 15. PBMC+LPS (5 ug/ml)+YY-101 50 nM • 16. PBMC+LPS (5 ug/ml)+YY-101 5 nM • 17. PBMC+LPS (5 ug/ml)+YY-101 0.5 nM • 18. PBMC+LPS (5 ug/ml)+YY-101 0.05 nM • 19. PBMC+LPS (5 ug/ml)+YY-101 0.005 nM • 20. PBMC+LPS (5 ug/ml)+YDE-011 500 nM • 21. PBMC+LPS (5 ug/ml)+YDE-011 50 nM • 22. PBMC+LPS (5 ug/ml)+YDE-011 5 nM • 23. PBMC+LPS (5 ug/ml)+YDE-011 0.5 nM • 24. PBMC+LPS (5 ug/ml)+YDE-011 0.05 nM • 25. PBMC+LPS (5 ug/ml)+YDE-011 0.005 nM • 26. PBMC+LPS (5 ug/ml)+YDE-043 500 nM • 27. PBMC+LPS (5 ug/ml)+YDE-043 50 nM • 28. PBMC+LPS (5 ug/ml)+YDE-043 5 nM • 29. PBMC+LPS (5 ug/ml)+YDE-043 0.5 nM • 30. PBMC+LPS (5 ug/ml)+YDE-043 0.05 nM • 31. PBMC+LPS (5 ug/ml)+YDE-043 0.005 nM
Multiplex assay was used to measure 30 cytokines and chemokines. The 1:200 diluted cell supernatant and serial dilution of the standard were dispensed into a 96 well plate at 50 ul/well. Then, the pre-mixed cocktail of antibody-coated magnetic beads was dispensed at 50 ul/well and incubated at room temperature for 2 h in a horizontal orbital microplate shaker at 800±500 rpm. The beads were washed using a magnetic device to prevent loss. The biotin-antibody was dispensed in 50 ul of each well and incubated at room temperature for 1 h in a shaker at 800±500 rpm. After washing, streptavidin-PE was added at 50 ul/well and incubated at room temperature for 30 min in a shaker under the same conditions. Finally, after washing, wash buffer (100 ul/well) was added to the plate and incubated in a shaker for 2 min. The Luminex™ 200 setting were set according to the manufacturer's protocol. The data was calculated with a standard five-parameter logistic nonlinear regression analysis of the data (xPonent software 4.2, USA). Results were presented as concentration (ng/ml or pg/ml).

[1] = PBMC + LPS(5 ug/ml) + compound 0.005 nM
[2] = PBMC + LPS(5 ug/ml) + compound 0.05 nM
[3] = PBMC + LPS(5 ug/ml) + compound 0.5 nM
[4] = PBMC + LPS(5 ug/ml) + compound 5 nM
[5] = PBMC + LPS(5 ug/ml) + compound 50 nM
[6] = PBMC + LPS(5 ug/ml) + compound 500 nM

CC(C)C[C@H](NC(=O)CNC(=O)[C@H](CC(C)C)NC(=O)[C@H](CCC(N)=O)NC(=O)CNC(=O)[C@@H]1C[C@@H](O)CN1)C(=O)N[C@@H](C)C(=O)NCC(=O)N1CCC[C@H]1C(=O)N[C@@H](CCCCN)C(=O)O [YDE-011] (H-[Hyp]GQLGLAGPK-OH)
IL-2 Concentration, individual wells [1]: 2239.1 pg/mL and 2082.5 pg/mL and 2707.7 pg/mL
IL-2 MFI, individual wells [1]: 58.0 and 56.0 and 64.0
IL-2 MFI, Mean [1]: 59.3
IL-2 Concentration, Mean [1]: 2343.1 pg/mL
IL-2 Concentration, individual wells [2]: 2707.7 pg/mL and 2473.6 pg/mL and 2824.6 pg/mL
IL-2 MFI, individual wells [2]: 64.0 and 61.0 and 65.5
IL-2 MFI, Mean [2]: 63.5
IL-2 Concentration, Mean [2]: 2668.6 pg/mL
IL-2 Concentration, individual wells [3]: 2239.1 pg/mL and 1925.7 pg/mL and 2200.0 pg/mL
IL-2 MFI, individual wells [3]: 58.0 and 54.0 and 57.5
IL-2 MFI, Mean [3]: 56.5
IL-2 Concentration, Mean [3]: 2121.6 pg/mL
IL-2 Concentration, individual wells [4]: 1532.6 pg/mL and 1611.3 pg/mL and 2551.7 pg/mL
IL-2 MFI, individual wells [4]: 49.0 and 50.0 and 62.0
IL-2 MFI, Mean [4]: 53.7
IL-2 Concentration, Mean [4]: 1898.5 pg/mL
IL-2 Concentration, individual wells [5]: 2160.8 pg/mL and 659.4 pg/mL and 2082.5 pg/mL
IL-2 MFI, individual wells [5]: 57.0 and 38.0 and 56.0
IL-2 MFI, Mean [5]: 50.3
IL-2 Concentration, Mean [5]: 1634.3 pg/mL
IL-2 Concentration, individual wells [6]: 2941.4 pg/mL and 579.2 pg/mL and 1729.4 pg/mL
IL-2 MFI, individual wells [6]: 67.0 and 37.0 and 51.5
IL-2 MFI, Mean [6]: 51.8
IL-2 Concentration, Mean [6]: 1750.0 pg/mL
LPS-induced IL-2 (in words) (at as low as 5 μM, LPS 5 ug/mL 24 hrs): significantly reduced
